Laboratory results from patent US20070043093A1, “Glucagon-like peptide-1 receptor agonists, the preparation and the use of the same” (priority 2003, published 2007).

Legend:
GLP-1R [1] = target: T1, GLP-1R (Rattus norvegicus, UniProt P32301); assay: Expression of the luciferase report gene in HEK 293/GLP1R+Luc cells; type: cell-based, human; conditions: for EC50: luciferase report gene, HEK 293/GLP1R+Luc cells, 6 hours
T1 construct: stably transfected with the expression vector of GLP-1R gene
T1 sequence (P32301 22-463): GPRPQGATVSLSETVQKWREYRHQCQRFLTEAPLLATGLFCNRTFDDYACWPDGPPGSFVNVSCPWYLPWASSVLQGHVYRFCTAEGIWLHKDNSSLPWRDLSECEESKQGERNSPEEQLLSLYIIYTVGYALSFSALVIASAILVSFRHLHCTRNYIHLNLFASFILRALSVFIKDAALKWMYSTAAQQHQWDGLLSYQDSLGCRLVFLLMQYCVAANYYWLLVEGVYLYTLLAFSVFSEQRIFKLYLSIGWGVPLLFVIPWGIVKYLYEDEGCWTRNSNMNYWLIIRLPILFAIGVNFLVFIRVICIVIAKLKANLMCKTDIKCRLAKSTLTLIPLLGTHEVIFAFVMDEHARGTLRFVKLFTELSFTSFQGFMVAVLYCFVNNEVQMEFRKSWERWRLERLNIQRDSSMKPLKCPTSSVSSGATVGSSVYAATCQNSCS
From the text: Upon that GLP-1R binds to GLP-1 or agonists, its Gasubunit is activated to stimulate the adenylate cyclase, which makes the increase in the concentration of intracellular cAMP. Since the promoter region of the proinsulin gene has the cAMP response element, upon binding of cAMP to this response element, the transcription of the proinsulin gene is activated, so as to increase the sensitivity of -- islet cells to glucose, and improve the expression and secretion of insulin (Diabetes, 2000, vol.49:1156-1164). The screening model employs the human embryonal nephric cell strain which is stably transfected with the expression vector of GLP-1R gene and the expression vector of luciferase report gene under the regulation of cAMP response element, to detect its response to the candidate compound (Cell Biology, 1992, Vol.89: 8641-8645; Proc. Natl. Acad. Sci. U.S.A. 1987, Vol.84: 3434-3438). When screening the candidate compounds, the compound which may induce the luciferase report gene to express have the activity of activating GLP-1.
Cell strain: HEK 293/GLP1R+Luc strain which stably express GLP-1R and luciferase (National New Medicaments Screening Center)
HEK 293/GLP1R+Luc cell in 20000 cells/100 μl/well are inoculated into 96-well plate, are cultured at 37[…] overnight with DMEM culture medium containing 10% of fetal calf serum and 500 μg/mL of G418. The candidate compounds wang516-2, wang502, and wang504 are respectively diluted to 2 mM, 1 mM, 0.3 mM, 0.1 mM, 0.03 mM, […], and 0.003 mM, and the other candidate compounds are diluted gradually from 30 mM for 8 times by a ratio of 1:3 to get a concentration gradient (i.e., 30 mM, 10 mM, 3 mM, 1 mM, 0.3 mM, 0.1 mM, 0.03 mM, and 0.01 mM), following by being added into the above 96-well plate at 1 μl/well. Then, the cells are cultured at 37[…] in 5% of CO2for 6 hours. The activity of luciferase is detected according to the specification of Steady-glo™ luciferase analysis system kit, and counting is performed with Victor 2 counting machine. The positive control adopts 30 nM of standard GLP-1.

GLP-1R [2] = target: T1, GLP-1R; assay: Ligand-binding activity, competition with 125I-labelled GLP-1 on HEK 293/GLP1R+Luc cells; set-up: species or system human; conditions: for EC50: competition with 125I-labelled GLP-1 (40 pM), 25 °C, 4 hours; for affinity to GLP-1R (in words): receptor-binding experiment, testing concentration range 0.1 nM to 100,000 nM
Method: In order to determine the binding activity of the compound to the ligand, the cells which highly express GLP-1R are prepared, GLP-1 labelled with ^125I is used as the ligand, while adding into the candidate compound. When the candidate compound binds the ^125I-labelled GLP-1 competitively, the isotope labels on the cell membrane reduce. Accordingly, the affinity of the candidate compound to the ligand can be evaluated (J Mol Endocrinol. 2000 Vol.25:321-35; J Biomol Screen, 2000 Vol. 5:377-84).
20 mM of tris-HCl (pH 7.4) (Shanghai Shenggong biological engineering technology LTD), 100 mM of NaCl (Shanghai Chemical agents Cooperation), 15 mM of NaF (Shanghai Chemical agents Cooperation), 2 mM of deoxypyridoxine (Sigma Cooperation), 0.2 mM of phenylmethylsulfonyl fluoride (Sigma Cooperation), aprotinin (Shanghai Chemical agents Cooperation) (1 μg/ml), and leupeptin (Shanghai Chemical agents Cooperation) (1 μg/ml).
The candidate compound is diluted with dimethyl sulphoxide at the concentration gradient of 0.1 nM, 1 nM, 10 nM, 100 nM, 1000 nM, 10,000 nM, and 100,000 nM.
10^5 HEK 293/GLP1R+Luc cells in the logarithmic growth phase are incubated together with the ^125I-labelled GLP-1 positive peptide (the final concentration of 40 pM) in 200 μl of the testing buffer solution at 25 °C for 4 hours, while adding into the non-labeled positive peptide or the candidate compound. The cells are collected with the cell collector, following by washing three times with the washing solution. The scintillation liquid is added into them, and each well is counted with Microbata counter.

GLP-1R [3] = target: T1, GLP-1R; assay: Determination of the concentration of intracellular cAMP; type: cell-based, human
From the text: Since the determination of the concentration of intracellular cAMP indirectly by detecting the expression of the report gene is an indirect process, the functional re-screen is directly performed with the cAMP-detecting kit in order to make sure that the compound can surely increase the concentration of intracellular cAMP.
HEK 293/GLP1R+Luc strain which stably express GLP-1R and luciferase (National new medicaments screening center)
HEK 293 cells are inoculated into 96-well plate in 20000 cells/100 μl/well, are cultured at 37[…] overnight. The compound 2f is diluted to 1.00E-03M, 1.00E-04M, 1.00E-05M, 1.00E-06M and 1.00E-07M with dimethyl sulphoxide, following by being inoculated into the above 96-well plate in […] and being cultured at 37 °C with 5% of CO2 for 1 hour. The concentration of intracellular cAMP is detected according to the specification of cAMP-Screen Direct TM system kit.

COc1cc(/C=C2/N=C(c3ccc(NC(C)=O)cc3)OC2=O)ccc1OC(=O)c1cccs1 [wang462]
EC50 (GLP-1R [1]): 11.6 µM
EC50 (GLP-1R [2]): > 100 µM

COc1cc(C=C2N=C(c3ccc([N+](=O)[O-])cc3)OC2=O)ccc1OC(=O)c1cccs1 [wang450]
EC50 (GLP-1R [2]): > 100 µM

COc1cc(C=C2N=C(c3ccc(NC(=O)Nc4ccc(C5=NC(=Cc6ccc(OC(=O)c7cccs7)c(OC)c6)C(=O)O5)cc4)cc3)OC2=O)ccc1OC(=O)c1cccs1 [wang866]
EC50 (GLP-1R [1]): 54.4 µM
EC50 (GLP-1R [2]): > 100 µM

CCOc1cc(/C=C2/N=C(c3ccc(NC(C)=O)cc3)OC2=O)ccc1OC(=O)c1cccs1 [2f]
EC50 (GLP-1R [1]): 13 µM
effect of high concentration on cells (cAMP decreasing trend) (GLP-1R [3]; 30 μM and 100 μM): cellulotoxic effect
concentration of cAMP with increase of compound concentration (GLP-1R [3]; 293/GLP-1R cells, 1 hour, FIG. 2): exponential increase
EC50 (GLP-1R [2]): 31 µM
affinity to GLP-1R (in words) (GLP-1R [2]): better affinity

COc1cc(C=C2N=C(c3ccc(NC(=O)C4CCCC4)cc3)OC2=O)ccc1OC(=O)c1cccs1 [wang516]
EC50 (GLP-1R [1]): 6.85 µM
EC50 (GLP-1R [2]): 40 to 80 µM
affinity to GLP-1R (in words) (GLP-1R [2]): little week

COc1cc(/C=C2/N=C(c3ccc(NC(=O)C4CC4)cc3)OC2=O)ccc1OC(=O)c1cccs1 [wang488]
EC50 (GLP-1R [1]): 6.73 µM

COc1cc(C=C2N=C(c3ccccc3)OC2=O)ccc1OC(=O)c1cccs1 [wang405]
EC50 (GLP-1R [2]): > 100 µM

COc1cc(/C=C2/N=C(c3ccc(NC(=O)C4CCC4)cc3)OC2=O)ccc1OC(=O)c1cccs1 [wang502]
EC50 (GLP-1R [1]): 3.31 µM

COc1cc(/C=C2/N=C(c3ccc(N)cc3)OC2=O)ccc1OC(=O)c1cccs1 [wang420]
EC50 (GLP-1R [2]): > 100 µM

COc1cc(/C=C2/N=C(c3ccc(NC(=O)C(C)(C)C)cc3)OC2=O)ccc1OC(=O)c1cccs1 [wang504]
EC50 (GLP-1R [1]): 4.87 µM

COc1cc(/C=C2/N=C(c3ccc(NC(=O)C(O)c4ccccc4)cc3)OC2=O)ccc1OC(=O)c1cccs1 (stereo not shown) [wang554]
EC50 (GLP-1R [1]): 5.24 µM

COc1cc(/C=C2/N=C(c3ccc(NC(=O)c4ccccc4)cc3)OC2=O)ccc1OC(=O)c1cccs1 [wang524]
EC50 (GLP-1R [1]): 46.5 µM
EC50 (GLP-1R [2]): > 100 µM

COc1cc(/C=C2/N=C(c3ccc(NC(=O)OC(C)(C)C)cc3)OC2=O)ccc1OC(=O)c1cccs1 [wang520]
relative activity of luciferase (GLP-1R [1]; final concentration of 30 μM, luciferase activity induced by 30 nM standard GLP-1 regarded as 100%, FIG. 1): 94%
EC50 (GLP-1R [1]): 4.6 µM
EC50 (GLP-1R [2]): 60 to 100 µM
affinity to GLP-1R (in words) (GLP-1R [2]): little week
